Reference: patent publication US20220324835A1 (Nurix Therapeutics, Inc., priority 2018, published 2022)

Legend:
[1] = test system: T-cell; experiment: IL-2 secretion from T-cells co-stimulated with anti-CD3 and anti-CD28 antibody (Biological Example 2); assay type: cell-based, human; details: Homo sapiens, T-cell, fold change over baseline, primary human total T-cells, read-out: IL-2 secretion Anti-CD3/Anti-CD28 stimulation; for fold induction at 0.3 µM: 0.3 μM Cbl-b inhibitor; for fold induction at 1 µM: 1 μM Cbl-b inhibitor; for fold induction at 4 µM: 4 μM Cbl-b inhibitor
Outline: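 No assay protocol given; T-cells stimulated with anti-CD3 alone or anti-CD3 plus anti-CD28, with or without Cbl-b inhibitor. Activation read as IL-2 secretion or CD25 surface staining, expressed as fold over baseline from uninhibited cells […].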

[2] = test system: T-cell; experiment: IL-2 secretion from T-cells stimulated with anti-CD3 antibody alone (Biological Example 2); assay type: cell-based, human; details: T-cell, fold change over baseline, primary human total T-cells, read-out: IL-2 secretion Anti-CD3 stimulation; for fold induction at 1 µM: 1 μM Cbl-b inhibitor; for fold induction at 8 µM: 8 μM Cbl-b inhibitor
[3] = target: T1, Cbl-b (Homo sapiens, UniProt Q13191); experiment: Cbl-b inhibition assay (Cbl-b activity assay, FRET, Biological Example 1; 100 mM NaCl, 60 nM Src kinase); assay type: biochemical; details: upper bound stated in text lists; read-out: IC50 values in the Cbl-b inhibition assay of Biological Example 1
T1 sequence (Q13191 36-427): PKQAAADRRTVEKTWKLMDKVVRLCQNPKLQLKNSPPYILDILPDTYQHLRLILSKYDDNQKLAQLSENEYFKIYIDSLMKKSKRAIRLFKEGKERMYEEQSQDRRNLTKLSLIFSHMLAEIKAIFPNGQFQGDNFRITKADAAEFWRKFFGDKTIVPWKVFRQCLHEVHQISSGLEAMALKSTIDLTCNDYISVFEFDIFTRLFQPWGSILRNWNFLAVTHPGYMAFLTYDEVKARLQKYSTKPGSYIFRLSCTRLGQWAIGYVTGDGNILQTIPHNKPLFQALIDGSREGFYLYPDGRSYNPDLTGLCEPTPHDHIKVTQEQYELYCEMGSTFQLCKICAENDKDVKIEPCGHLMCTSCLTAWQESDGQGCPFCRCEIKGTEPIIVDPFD
Outline: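 Here, the E2 UbcH5B, irreversibly linked to Bodipy-fluorescein ubiquitin, binds Cbl-b once Src kinase phosphorylates it; Cbl-b carries an N-terminal biotinylated Avi-tag captured by streptavidin-terbium. An absent FRET signal indicates inhibition.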

[4] = test system: T-cell; experiment: CD25 cell surface staining on T-cells stimulated with anti-CD3 antibody alone (Biological Example 2); assay type: cell-based, human; details: T-cell, fold change over baseline, primary human total T-cells, read-out: CD25 staining Anti-CD3 stimulation; for fold induction at 1 µM: 1 μM Cbl-b inhibitor; for fold induction at 8 µM: 8 μM Cbl-b inhibitor
[5] = target: T1, Cbl-b; experiment: Cbl-b activity assay (Cbl-b inhibition assay), TR-FRET of Cbl-b interaction with UbcH5B-Ub; assay type: biochemical; details: assay buffer with 100 mM NaCl, 60 nM Src kinase; read-out: Cbl-b activity IC50
Outline: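 TR-FRET readout of Cbl-b binding to Bodipy-fluorescein N-terminally labeled Ub conjugated to UbcH5B C85K, measured with compound present. After compound incubation, 60 nM Src kinase with 1 mM ATP and 5 mM MgCl2 (final) was added for 1.5 h, then a further 1 h incubation; asterisked values used 50 mM NaCl buffer and 30 nM Src.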

| SMILES | fold induction at 0.3 µM [1] | fold induction at 1 µM [1] | fold induction at 4 µM [1] | fold induction at 1 µM [2] | fold induction at 8 µM [2] | IC50 [3] [nM] | fold induction at 1 µM [4] | fold induction at 8 µM [4] | IC50 [5] [nM] |
| --- | --- | --- | --- | --- | --- | --- | --- | --- | --- |
| C[C@H](Cc1nncn1C)c1cccc(NC(=O)c2cc(C3CC3)nc(C3CC3)n2)c1 [Compound 193, (R)-2,6-dicyclopropyl-N-(3-(1-(4-methyl-4H-1,2,4-triazol-3-yl)propan-2-yl)phenyl)pyrimidine-4-carboxamide] | 2.51 to 5 | 5 to 7.5 | > 7.5 | > 0.201 | > 0.201 | ≤ 100 | > 1 | > 1 | < 100 |
| C[C@H](Cc1nncn1C)c1cccc(NC(=O)c2nc3c(C4CC4)cccc3[nH]2)c1 [Compound 319, 4-cyclopropyl-N-[3-[(1R)-1-methyl-2-(4-methyl-1,2,4-triazol-3-yl)ethyl]phenyl]-1H-benzimidazole-2-carboxamide] | 1.01 to 2.5 | 1.01 to 2.5 | 2.51 to 5 | 0.051 to 0.1 | > 0.201 | ≤ 300 | 0.601 to 0.8 | 0.801 to 1 | 100 to 300 |
| Cn1cnnc1CC(C)(C)c1cccc(N2Cc3c(cccc3C(F)(F)F)C2=O)c1 [Compound 300, 2-(3-(2-methyl-1-(4-methyl-4H-1,2,4-triazol-3-yl)propan-2-yl)phenyl)-4-(trifluoromethyl)isoindolin-1-one] | 1.01 to 2.5 | 2.51 to 5 | > 7.5 | > 0.201 | > 0.201 | ≤ 100 | 0.801 to 1 | > 1 | < 100 |
| C[C@H](Cc1nncn1C)c1cccc(NC(=O)c2cc(O[C@@H]3CC[C@@H](O)C3)ccn2)c1 (relative stereo) [Compound 205, trans-4-(3-hydroxycyclopentyloxy)-N-(3-((R)-1-(4-methyl-4H-1,2,4-triazol-3-yl)propan-2-yl)phenyl)picolinamide] | 2.51 to 5 | 2.51 to 5 | 5 to 7.5 | 0.051 to 0.1 | 0.101 to 0.15 | ≤ 100 | 0.801 to 1 | > 1 | < 100 |
| Cn1cnnc1CC1(c2cccc(N3Cc4c(cccc4C(F)(F)F)C3=O)c2)COC1 [Compound 301, 2-[3-[3-[(4-methyl-1,2,4-triazol-3-yl)methyl]oxetan-3-yl]phenyl]-4-(trifluoromethyl)isoindolin-1-one] | 1.01 to 2.5 | 2.51 to 5 | > 7.5 | 0.051 to 0.1 | 0.101 to 0.15 | ≤ 100 | 0.801 to 1 | > 1 | < 100 |
| C[C@H](Cc1nncn1C)c1cccc(N2Cc3c(cc(C(=O)N4CC[C@H](O)C4)cc3C3CC3)C2=O)c1 [Compound 277, 4-cyclopropyl-6-((S)-3-hydroxypyrrolidine-1-carbonyl)-2-(3-((R)-1-(4-methyl-4H-1,2,4-triazol-3-yl)propan-2-yl)phenyl)isoindolin-1-one] | 1.01 to 2.5 | 2.51 to 5 | 2.51 to 5 | 0.051 to 0.1 | 0.101 to 0.15 | ≤ 100 | 0.801 to 1 | > 1 | < 100 |
| CC(=O)N1CCN(c2ccc3cnc(C(=O)Nc4cccc([C@H](C)Cc5nncn5C)c4)cc3c2)CC1 [Compound 211, (R)-6-(4-acetylpiperazin-1-yl)-N-(3-(1-(4-methyl-4H-1,2,4-triazol-3-yl)propan-2-yl)phenyl)isoquinoline-3-carboxamide 2,2,2-trifluoroacetate] | 2.51 to 5 | 5 to 7.5 | > 7.5 | > 0.201 | > 0.201 | ≤ 100 | 0.601 to 0.8 | > 1 | < 100 |
